In patent publication US20250332266A1, “COMPOUNDS FOR THE DEGRADATION OF EGFR KINASE” (BeiGene Switzerland GmbH, priority 2022, published 2025):

Key:
[1] = biological target: T1, EGFR L858R/T790M/C797S (H1975-clone #25) (Homo sapiens, UniProt P00533, C797S/L858R/T790M); assay: EGFR degradation, HTRF total-EGFR assay, H1975-clone #25 (LTC); format: cell-based; conditions: H1975-clone #25 L858R/T790M/C797S, 16 h treatment
T1 construct: expressed in transfected cells; host or cells: H1975 (clone #25), lentiviral transduction, endogenous EGFR knocked out
Text: (§1) H1975-clone #28 (Del19/T790M/C797S, or abbr: DTC), H1975-clone #23 (Del19/C797S, or abbr: DC), H1975-clone #25 (L858R/T790M/C797S, or abbr: LTC) and H1975-clone #8 (L858R/C797S, or abbr: LC). EGFR-Del19/T790M/C797S, EGFR-Del19/C797S, EGFR-L858R/T790M/C797S and EGFR-L858R/C797S were stably expressed in H1975 cell lines by lentivirus-mediated over-expression, respectively. The EGFR over-expressed cells then underwent knockout, in which the EGFR targeting sgRNA was designed to only target the endogenous EGFR copies and preserve the exogenous EGFR copies. Followed by the knockout, the edited H1975 cells were seeded in 96 well plates at the concentration of 1 cell/well, cultured for about 2 weeks to allow single clones formation. The formed clones were screened by DNA sequencing and whole exon sequencing analysis for the desired edition. H1975-clone #28, H1975-clone #23, H1975-clone #25 and H1975-clone #8 were finally confirmed as homozygous Del19/T790M/C797S EGFR, Del19/C797S EGFR, L858R/T790M/C797S EGFR and L858R/C797S EGFR clones, respectively.
(§2) H1975-#25, H1975-#28, H1975-#23 and H1975-#8 cells are treated with compounds diluted in 0.2% DMSO cell culture medium on day 2, incubate for 16 h, 37° C., 5% CO2. The final concentration of compounds in all assay is start with 10 μM, 5-fold dilution, total 8 doses were included.
(§3) Total-EGFR cellular kit(64NG1PEH) were used for evaluating EGFR degradation.
(§4) After 16 h treatment, add HTRF lysis buffer to each well; seal the plate and incubate 1 hour at room temperature on a plate shaker; Once the cells are lysed, 16 μL of cell lysate are transferred to a PE 384-well HTRF detection plate; 4 μL of pre-mixed HTRF antibodies are added to each well; cover the plate with a plate sealer, spin 1000 rpm for 1 min, incubate overnight at room temperature; read on BMG PheraStar with HTRF protocol (337 nm-665 nm-620 nm).
(§5) The inhibition (degradation) percentage of the compound was calculated by the following equation:
(§6) Inhibition percentage of Compound=100−100×(Signal−low control)/(High control−low control), wherein signal=each test compound group
(§7) High control=Cell group with added DMSO and without compound, indicating microplate readings without EGFR degradation.
(§8) Imax (Dmax) is the maximum percentage of inhibition (degradation).
(§9) The IC50 (DC50) value of a compound can be obtained by fitting the following equation
(§10) Wherein, X and Y are known values, and IC50, Hillslope, Top and Bottom are the parameters obtained by fitting with software. Y is the inhibition percentage (calculated from the equation), X is the concentration of the compound; IC50 is the concentration of the compound when the 50% inhibition is reached. The smaller the IC50 value is, the stronger the inhibitory ability of the compound is. Vice versa, the higher the IC50 value is, the weaker the ability the inhibitory ability of the compound is; Hillslope represents the slope of the fitted curve, generally around 1*; Bottom represents the minimum value of the curve obtained by data fitting, which is generally 0%±20%; Top represents the maximum value of the curve obtained by data fitting, which is generally 100%±20%. The experimental data were fitted by calculating and analyzing with Dotmatics data analysis software.

[2] = biological target: EGFR Del19/T790M/C797S (H1975-clone #28) (Homo sapiens, UniProt P00533, T790M/C797S, form not given); assay: EGFR degradation, HTRF total-EGFR assay, H1975-clone #28 (DTC); format: cell-based; conditions: H1975-clone #28 Del19/T790M/C797S, 16 h treatment
Text: as §1, §2, §3, §4, §5, §6, §7, §8, §9, §10

| Compound | Degradation H1975 # 25-LTC [1] | Degradation H1975 # 28 DTC [2] |
| --- | --- | --- |
| Cc1cc2cc(n1)-c1cnn(C)c1OC[C@H]1C[C@@H](CN3/C(=N/C2=O)Nc2ccc(N4CCN(C5CCN(c6ccc(C7CCC(=O)NC7=O)nc6)CC5)CC4=O)cc23)C1 (stereo partly shown) [Example 12, 3-(5-(4-(4-((7^1s,7^3s,E)-1^1,2^6-dimethyl-3-oxo-5^2,5^3-dihydro-1^1H,5^1H-9-oxa-4-aza-5(2,1)-benzo[d]imidazola-2(2,4)-pyridina-1(4,5)-pyrazola-7(1,3)-cyclobutanacyclononaphane-5^6-yl)-3-oxopiperazin-1-yl)piperidin-1-yl)pyridin-2-yl)piperidine-2,6-dione] | 79.0 | 85.3 |
| Cc1cc2cc(n1)-c1cnn(C)c1OC[C@H]1C[C@@H](CN3/C(=N/C2=O)Nc2ccc(N4CCC(N5C[C@@H]6C[C@H]5CN6c5ccc(C6CCC(=O)NC6=O)nc5C)CC4)cc23)C1 (stereo partly drawn) [Example 47, 3-(5-((1S,4S)-5-(1-((7^1s,7^3R,E)-1^1,2^6-dimethyl-3-oxo-5^2,5^3-dihydro-1′H,5^1H-9-oxa-4-aza-5(2,1)-benzo[d]imidazola-2(2,4)-pyridina-1(4,5)-pyrazola-7(1,3)-cyclobutanacyclononaphane-5^6-yl)piperidin-4-yl)-2,5-diazabicyclo[2.2.1]heptan-2-yl)-6-methylpyridin-2-yl)piperidine-2,6-dione] | 93.3 | 78.5 |
| Cc1cc2cc(n1)-c1cnn(C)c1OC[C@H]1C[C@@H](CN3/C(=N/C2=O)Nc2ccc(N4C5CCC4CN(C4CCN(c6ccc(C7CCC(=O)NC7=O)nc6C)CC4)C5)cc23)C1 (stereo partly shown) [Example 127, 3-(5-(4-(8-((7^1s,7^3s,E)-1^1,2^6-dimethyl-3-oxo-5^2,5^3-dihydro-1^1H,5^1H-9-oxa-4-aza-5(2,1)-benzo[d]imidazola-2(2,4)-pyridina-1(4,5)-pyrazola-7(1,3)-cyclobutanacyclononaphane-5^6-yl)-3,8-diazabicyclo[3.2.1]octan-3-yl)piperidin-1-yl)-6-methylpyridin-2-yl)piperidine-2,6-dione] | 96.0 | 85.5 |
| Cc1cc2cc(n1)-c1cnn(C)c1OC[C@H]1C[C@@H](CN3/C(=N/C2=O)Nc2ccc(N4CCC(N5CCN(c6cc(F)c([C@H]7CCC(=O)NC7=O)c(F)c6)CC5)CC4)cc23)C1 [Example 17, (R)-3-(4-(4-(1-((7^1s,7^3s,E)-1^1,2^6-dimethyl-3-oxo-5^2,5^3-dihydro-1^1H,5^1H-9-oxa-4-aza-5(2,1)-benzo[d]imidazola-2(2,4)-pyridina-1(4,5)-pyrazola-7(1,3)-cyclobutanacyclononaphane-5^6-yl)piperidin-4-yl)piperazin-1-yl)-2,6-difluorophenyl)piperidine-2,6-dione] | 88.3 | 86.2 |
| Cc1cc2cc(n1)-c1cnn(C)c1OC[C@H]1C[C@@H](CN3/C(=N/C2=O)Nc2ccc(N4CCN([C@@H]5CCN(c6ccc(C7CCC(=O)NC7=O)nc6C)CC5(F)F)CC4)cc23)C1 (stereo partly drawn) [Example 123, 3-(5-((R)-4-(4-((7^1s,7^3S,E)-1^1,2^6-dimethyl-3-oxo-5^2,5^3-dihydro-1^1H,5^1H-9-oxa-4-aza-5(2,1)-benzo[d]imidazola-2(2,4)-pyridina-1(4,5)-pyrazola-7(1,3)-cyclobutanacyclononaphane-5^6-yl)piperazin-1-yl)-3,3-difluoropiperidin-1-yl)-6-methylpyridin-2-yl)piperidine-2,6-dione] | 92.1 | 85.6 |
| Cc1cc2cc(n1)-c1cnn(C)c1OC[C@H]1C[C@@H](CN3/C(=N/C2=O)Nc2ccc(N4CCN(C5CCN(c6ccc(C7CCC(=O)NC7=O)nc6)CC5)CC4)cc23)C1 (stereo partly shown) [Example 15, 3-(5-(4-(4-((7^1s,7^3s,E)-1^1,2^6-dimethyl-3-oxo-5^2,5^3-dihydro-1^1H,5^1H-9-oxa-4-aza-5(2,1)-benzo[d]imidazola-2(2,4)-pyridina-1(4,5)-pyrazola-7(1,3)-cyclobutanacyclononaphane-5^6-yl)piperazin-1-yl)piperidin-1-yl)pyridin-2-yl)piperidine-2,6-dione] | 87.3 | 76.0 |
| (R)-3-(4-(4-(4-((7^1s,7^3s,E)-1^1,2^6-dimethyl-3-oxo-5^2,5^3-dihydro-1^1H,5^1H-9-oxa-4-aza-5(2,1)-benzo[d]imidazola-2(2,4)-pyridina-1(4,5)-pyrazola-7(1,3)-cyclobutanacyclononaphane-5^6-yl)piperazin-1-yl)piperidin-1-yl)-2,6-difluorophenyl)piperidine-2,6-dione [Example 6] | 91.7 | 91.2 |
| Cc1cc2cc(n1)-c1cnn(C)c1OC[C@H]1C[C@@H](CN3/C(=N/C2=O)Nc2ccc(N4CCC(N5CCN(c6cc(F)c([C@H]7CCC(=O)NC7=O)c(F)c6)CC5=O)CC4)cc23)C1 [Example 70, (R)-3-(4-(4-(1-((7^1s,7^3s,E)-1^1,2^6-dimethyl-3-oxo-5^2,5^3-dihydro-1^1H,5^1H-9-oxa-4-aza-5(2,1)-benzo[d]imidazola-2(2,4)-pyridina-1(4,5)-pyrazola-7(1,3)-cyclobutanacyclononaphane-5^6-yl)piperidin-4-yl)-3-oxopiperazin-1-yl)-2,6-difluorophenyl)piperidine-2,6-dione] | 91.8 | 88.7 |
| Cc1cc2cc(n1)-c1cnn(C)c1OC[C@H]1C[C@@H](CN3/C(=N/C2=O)Nc2ccc(N4CCN([C@H]5CCN(c6ccc(C7CCC(=O)NC7=O)nc6C)C[C@H]5F)CC4)cc23)C1 (stereo partly drawn) [Example 19, 3-(5-((3R,4S)-4-(4-((7^1s,7^3R,E)-1^1,2^6-dimethyl-3-oxo-5^2,5^3-dihydro-1^1H,5^1H-9-oxa-4-aza-5(2,1)-benzo[d]imidazola-2(2,4)-pyridina-1(4,5)-pyrazola-7(1,3)-cyclobutanacyclononaphane-5^6-yl)piperazin-1-yl)-3-fluoropiperidin-1-yl)-6-methylpyridin-2-yl)piperidine-2,6-dione] | 92.2 | 92.8 |
| Cc1cc2cc(n1)-c1cnn(C)c1OC[C@H]1C[C@@H](CN3/C(=N/C2=O)Nc2ccc(N4CCN(C5CCN(c6cnc(C7CCC(=O)NC7=O)cc6C)CC5)CC4)cc23)C1 (stereo partly shown) [Example 40, 3-(5-(4-(4-((7^1s,7^3s,E)-1^1,2^6-dimethyl-3-oxo-5^2,5^3-dihydro-1^1H,5^1H-9-oxa-4-aza-5(2,1)-benzo[d]imidazola-2(2,4)-pyridina-1(4,5)-pyrazola-7(1,3)-cyclobutanacyclononaphane-5^6-yl)piperazin-1-yl)piperidin-1-yl)-4-methylpyridin-2-yl)piperidine-2,6-dione] | 93.6 | 91.5 |
| Cc1cc2cc(n1)-c1cnn(C)c1OC[C@H]1C[C@H](CN3/C(=N/C2=O)Nc2ccc(CN4CCN(C(=O)C5CN(c6cc(F)c([C@H]7CCC(=O)NC7=O)c(F)c6)CC5(C)C)CC4)cc23)C1 (stereo partly drawn) [Example 2, (R)-3-(4-((S)-4-(4-(((7^1r,7^3S,E)-1^1,2^6-dimethyl-3-oxo-5^2,5^3-dihydro-1^2H,5′H-9-oxa-4-aza-5(2,1)-benzo[d]imidazola-2(2,4)-pyridina-1(4,5)-pyrazola-7(1,3)-cyclobutanacyclononaphane-5^6-yl)methyl)piperazine-1-carbonyl)-3,3-dimethylpyrrolidin-1-yl)-2,6-difluorophenyl)piperidine-2,6-dione] | 62.0 | 84.3 |
